Some test systems named below: DLD-1 colon; DMS 114 small cell lung; DMS 273 small cell lung; HOP-18 NSCLC; LXFL 529 NSCLC; XF 498 CNS; MDA-N; SNB-78 CNS; RXF-631 renal.
Experiment in all cases: inhibition of tumour cell growth, NCI panel, 48 h

Molecules are shown by their SMILES. Where “and” joins values, the source holds several entries; their conditions need not be identical. Equal entries are not always repeated.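 How tested: cells in 96-well plates exposed to compound for 48 hours at five concentrations. At the GI50, growth is halved. TGI marks complete inhibition of growth.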

Take `O=C1OC2C=CC1C1(CCOC1=O)C2` (stereo not drawn): the TGI in the test with DLD-1 colon, in the test on DMS 114 small cell lung, in the test on DMS 273 small cell lung, in the test on HOP-18 NSCLC, in the test with LXFL 529 NSCLC and with XF 498 CNS was > 100 µM in each case.

In the test with MDA-N, `COc1cc(N=Nc2cccc(S(N)(=O)=O)c2)c2ccccc2c1N` returned a TGI of 5.63 µM.

As to `c1ccc(-c2[nH]c(-c3ccccc3)c(-c3cnccn3)c2-c2cnccn2)cc1`, the TGI in the test on DLD-1 colon, with DMS 114 small cell lung, with DMS 273 small cell lung, in the test on HOP-18 NSCLC, with SNB-78 CNS and in the test with XF 498 CNS was > 100 µM each time.

Take `O=[N+]([O-])c1ccc(NC(=S)N/N=C(\c2ccccc2)c2ccccn2)cc1`: the TGI with MDA-N is 3.32 µM and 3.1 µM.

As to `O=C1C(=Cc2ccccc2[N+](=O)[O-])N=C(c2ccccc2)N1n1c(-c2ccccc2)nc2ccccc2c1=O`, the TGI in the test with MDA-N is > 100 µM.

`COc1cccc2c1[C@]1(O)C(O)CCCC21` (stereo partly drawn): the TGI in the test with DLD-1 colon, in the test with DMS 114 small cell lung, in the test on DMS 273 small cell lung, with HOP-18 NSCLC, with LXFL 529 NSCLC and with SNB-78 CNS was > 100 µM in each case.

For `CCOC(=O)NC(=O)c1cn(C2OC(CO)C(O)C2O)c(=O)[nH]c1=O` (stereo not drawn), the TGI in the test with DLD-1 colon, in the test on DMS 114 small cell lung, in the test on DMS 273 small cell lung, in the test with LXFL 529 NSCLC and with RXF-631 renal was > 100 µM in each case.

In the case of `CC1=NN(C(=O)c2cc(Cl)cc([N+](=O)[O-])c2)C(=O)C1N=Nc1ccccc1C(=O)O` (stereo not drawn), the TGI in the test with DLD-1 colon, with DMS 273 small cell lung, with HOP-18 NSCLC, in the test on LXFL 529 NSCLC, in the test with RXF-631 renal and in the test on SNB-78 CNS was > 100 µM in each case.

For the molecule `CCC1(CC)C(=O)[N-]C(=O)[N-]C1=O.[Au+].[Au+].c1ccc([PH+](c2ccccc2)c2ccccc2)cc1.c1ccc([PH+](c2ccccc2)c2ccccc2)cc1`, in the test on HOP-18 NSCLC, the GI50 was 0.256 µM and the TGI stood at 1.16 µM. Also, in the test with LXFL 529 NSCLC, the GI50 is 0.153 µM and the TGI is 0.323 µM.

As for `C/C=C/C(=O)[O-].N.N.N.N.N.[Co+3].[O-][Cl+3]([O-])([O-])[O-]`, the GI50 in the test on DLD-1 colon, with DMS 273 small cell lung, in the test with LXFL 529 NSCLC and with SNB-78 CNS was > 100 µM throughout. Also, the TGI with DLD-1 colon, with DMS 273 small cell lung, in the test with LXFL 529 NSCLC and in the test with SNB-78 CNS was > 100 µM each time.

Consider `CC1(C)CC(=O)C(=CN2C(=O)CNC2=S)C(=O)C1`, for which the TGI in the test on MDA-N was > 100 µM.

For the molecule `S=c1[nH]nc(SCc2ccccc2Cl)c2[nH]cnc12`, the TGI in the test on MDA-N is > 100 µM.

For the molecule `Cc1ccc([N+](=O)[O-])cc1NC(=O)C(=O)C1CCC2=C(Sc3ccccc3N2)C1=O` (stereo not drawn), in the test with MDA-N, the TGI was > 100 µM.

For the molecule `CCOC(=O)/C(C#N)=C(N)/C(=N\Nc1cccc(C(F)(F)F)c1)C(=O)OCC`, the TGI in the test with DLD-1 colon, with DMS 114 small cell lung, with DMS 273 small cell lung, in the test with HOP-18 NSCLC, in the test on LXFL 529 NSCLC and with SNB-78 CNS was > 100 µM throughout.

In the case of `O=C(O)c1oc2cccc3c2c1CCC3`, the TGI in the test on DLD-1 colon, with DMS 114 small cell lung, in the test with DMS 273 small cell lung, with LXFL 529 NSCLC, with RXF-631 renal and with SNB-78 CNS was > 100 µM in each case. Moreover, the TGI with XF 498 CNS is > 100 µM.

On to `COc1cccc2ccc3c(c12)C(=O)OC31CCc2c(C)cccc21` (stereo not drawn), for which the TGI with DLD-1 colon is > 31.6 µM; with DMS 114 small cell lung, > 31.6 µM; in the test on DMS 273 small cell lung, > 31.6 µM; in the test with HOP-18 NSCLC it was > 31.6 µM; in the test on LXFL 529 NSCLC, > 31.6 µM; with MDA-N it was > 100 µM. Also, the TGI in the test with SNB-78 CNS is > 100 µM; in the test on XF 498 CNS it was 86.2 µM.

On to `O=C1C2=C(c3ccccc31)C(c1ccc(Cl)cc1)NC(=S)N2` (stereo not drawn), for which the TGI in the test with DLD-1 colon amounted to 60.9 µM; in the test with DMS 114 small cell lung, 67.5 µM; in the test with DMS 273 small cell lung, 42.8 µM; in the test on LXFL 529 NSCLC, 29.5 µM.

On to `C=Cc1cnc([N+](=O)[O-])n1C`, for which the TGI in the test on MDA-N is > 100 µM.

For the molecule `Cc1cccc(O)c(=O)c1`, the TGI is > 100 µM in the test on DLD-1 colon; 45.7 µM in the test with DMS 114 small cell lung; > 100 µM in the test on DMS 273 small cell lung; > 100 µM with HOP-18 NSCLC; > 100 µM with LXFL 529 NSCLC; > 100 µM in the test with SNB-78 CNS.

Turning to `O=C(/C=C/c1ccccc1)CCc1c(O)c2ccccc2oc1=O`, the TGI with MDA-N is > 100 µM.

As to `[N-]=[N+]=Nc1c(Br)c(=O)[nH]c(=O)n1COCCO`, the TGI in the test with DLD-1 colon, with DMS 114 small cell lung, in the test on DMS 273 small cell lung, in the test on HOP-18 NSCLC, in the test on LXFL 529 NSCLC and in the test with RXF-631 renal was > 100 µM each time. Besides, the TGI in the test on SNB-78 CNS and with XF 498 CNS was > 100 µM in each case.

Take `O=C1OC(c2ccccc2)=N/C1=C/N1CCCC1C(=O)O` (stereo not drawn): the TGI in the test with DLD-1 colon, with DMS 114 small cell lung, in the test with DMS 273 small cell lung, in the test with HOP-18 NSCLC, in the test on LXFL 529 NSCLC and in the test with RXF-631 renal was > 100 µM throughout. Also, the TGI with SNB-78 CNS and in the test on XF 498 CNS was > 100 µM throughout.

Take `CC(=O)Nc1cc2cc(NS(=O)(=O)c3cc(C(F)(F)F)cc(C(F)(F)F)c3)ccc2oc1=O`: the TGI with MDA-N was > 100 µM.

In the case of `c1ccc(COc2cccc3cccnc23)cc1`, the TGI in the test with DLD-1 colon, with DMS 114 small cell lung, with HOP-18 NSCLC, with LXFL 529 NSCLC, in the test with RXF-631 renal and in the test with XF 498 CNS was > 100 µM in each case.

For `COc1ccc(N2C(=O)C(N3C(=O)C=CC3=O)C2C=O)cc1` (stereo not drawn), the TGI in the test on DLD-1 colon, with DMS 273 small cell lung, in the test on HOP-18 NSCLC, with LXFL 529 NSCLC and in the test on SNB-78 CNS was > 100 µM each time.

(Values after PubChem BioAssay (NCI).)
